Measured values published in US20220017501A1, “MICROBIOCIDAL THIAZOLE DERIVATIVES” (SYNGENTA PARTICIPATIONS AG, priority 2018, published 2022).

How the values were obtained:
[1] = test system: Glomerella lagenarium (Colletotrichum lagenarium); assay: Glomerella lagenarium (Colletotrichum lagenarium) / liquid culture (anthracnose); type: cell-based; conditions: Colletotrichum orbiculare, growth inhibition photometrically 3-4 days after application, read-out: control of Glomerella lagenarium
Description: (§1) Example B3: Glomerella Lagenarium (Colletotrichum Lagenarium)/Liquid Culture (Anthracnose) Conidia of the fungus from cryogenic storage are directly mixed into nutrient broth (PDB potato dextrose broth). After placing a (DMSO) solution of test compound into a microtiter plate (96-well format), the nutrient broth containing the fungal spores is added. The test plates are incubated at 24° C. and the inhibition of growth is measured photometrically 3-4 days after application.

[2] = test system: Mycosphaerella graminicola (Septoria tritici); assay: Mycosphaerella graminicola (Septoria tritici) / liquid culture (Septoria blotch); type: cell-based; conditions: Zymoseptoria tritici, growth inhibition photometrically 4-5 days after application, read-out: control of Mycosphaerella graminicola
Description: as §1, with “B16: Mycosphaerella Graminicola (Septoria Tritici)/Liquid” for “B3: Glomerella Lagenarium (Colletotrichum Lagenarium)/Liquid”, “(Septoria Blotch)” for “(Anthracnose)”, “determined” for “measured”, “4-5” for “3-4”, “application. […] […].23.” for “application.”

[3] = test system: Magnaporthe grisea (Pyricularia oryzae); assay: whole plant or invertebrate; type: in vivo; conditions: foliar, read-out: control of Magnaporthe grisea
Pyrenophora teres = Pyrenophora teres / barley / leaf disc preventative (net blotch); type: in vivo; conditions: foliar, barley leaf segments, compared to untreated control
Description: Example B14: Pyrenophora Teres/Barley/Leaf Disc Preventative (Net Blotch) Barley leaf segments cv. Hasso are placed on agar in a multiwell plate (24-well format) and sprayed with the formulated test compound diluted in water. The leaf […] inoculated with a spore suspension of the fungus 2 days after application. The inoculated leaf segments are incubated at 20° C. and 65% rh under a light regime of 12 h light/12 h darkness in a climate cabinet and the activity of a compound is assessed as disease control compared to untreated when an appropriate level of disease damage appears in untreated check leaf segments (5-7 days after application). […] […].23.

[4] = test system: Mycosphaerella arachidis (Cercospora arachidicola); assay: Mycosphaerella arachidis (Cercospora arachidicola) / liquid culture (early leaf spot); type: cell-based; conditions: growth inhibition photometrically 4-5 days after application, read-out: control of Mycosphaerella arachidis
Description: as §1, with “B8: Mycosphaerella Arachidis (Cercospora Arachidicola)/Liquid” for “B3: Glomerella Lagenarium (Colletotrichum Lagenarium)/Liquid”, “(Early Leaf Spot)” for “(Anthracnose)”, “determined” for “measured”, “4-5” for “3-4”, “application. […] […].23.” for “application.”

[5] = test system: Monographella nivalis (Microdochium nivale); assay: Monographella nivalis (Microdochium nivale) / liquid culture (foot rot cereals); type: cell-based; conditions: growth inhibition photometrically 4-5 days after application, read-out: control of Monographella nivalis
Description: as §1, with “B7: Monographella Nivalis (Microdochium Nivale)/Liquid” for “B3: Glomerella Lagenarium (Colletotrichum Lagenarium)/Liquid”, “(Foot Rot Cereals)” for “(Anthracnose)”, “determined” for “measured”, “4-5” for “3-4”, “application. […] […].23.” for “application.”

[6] = test system: Blumeria graminis f. sp. tritici (Erysiphe graminis f. sp. tritici); assay: Blumeria graminis f. sp. tritici / wheat / leaf disc preventative (powdery mildew on wheat); type: in vivo; conditions: foliar, wheat leaf segments, compared to untreated control
Description: Example B4: Blumeria Graminis f. sp. Tritici (Erysiphe Graminis f. sp. Tritici)/Wheat/Leaf Disc Preventative (Powdery Mildew on Wheat) Wheat leaf segments cv. Kanzler are placed on agar in a multiwell plate (24-well format) and sprayed with the formulated test compound diluted in water. The leaf disks are inoculated by shaking powdery mildew infected plants above the test plates 1 day after application. The inoculated leaf disks are incubated at 20° C. and 60% rh under a light regime of 24 h darkness followed by 12 h light/12 h darkness in a climate chamber and the activity of a compound is assessed as percent disease control compared to untreated when an appropriate level of disease damage appears on untreated check leaf segments (6-8 days after application). […].23.

CCCCNC(=O)c1nc(N(C#N)c2cc(F)nc(F)c2)sc1C [I.p.23, N-butyl-2-[cyano-(2,6-difluoro-4-pyridyl)amino]-5-methyl-thiazole-4-carboxamide]
≥ 80%: inhibition of growth at 20 ppm [1] | inhibition of growth at 20 ppm [2] | pest or weed control at 200 ppm [3] | pest or weed control at 200 ppm (Pyrenophora teres) | inhibition of growth at 20 ppm [4] | inhibition of growth at 20 ppm [5] | pest or weed control at 200 ppm [6]

CC1(C)CCC1NC(=O)c1nc(N(C#N)c2cc(F)nc(F)c2)sc1NC=O (stereo not shown) [I.b.25, 2-[cyano-(2,6-difluoro-4-pyridyl)amino]-N-(2,2-dimethylcyclobutyl)-5-formamido-thiazole-4-carboxamide]
≥ 80%: inhibition of growth at 20 ppm [1] | inhibition of growth at 20 ppm [2] | inhibition of growth at 20 ppm [5]

Cc1sc(N(C#N)c2cc(F)cc(F)c2)nc1C(=O)NC1(C)CCCC1 [I.g.08, 2-(N-cyano-3,5-difluoro-anilino)-5-methyl-N-(1-methylcyclopentyl)thiazole-4-carboxamide]
≥ 80%: inhibition of growth at 20 ppm [1] | pest or weed control at 200 ppm [3] | inhibition of growth at 20 ppm [4] | inhibition of growth at 20 ppm [5] | pest or weed control at 200 ppm [6]

CCCCCNC(=O)c1nc(N(C#N)c2cc(F)nc(F)c2)sc1C [I.l.23, 2-[cyano-(2,6-difluoro-4-pyridyl)amino]-5-methyl-N-pentyl-thiazole-4-carboxamide]
≥ 80%: inhibition of growth at 20 ppm [2] | pest or weed control at 200 ppm [3] | inhibition of growth at 20 ppm [4] | inhibition of growth at 20 ppm [5] | pest or weed control at 200 ppm [6]

Cc1sc(N(C#N)c2cc(F)nc(F)c2)nc1C(=O)NC1CCC12Cc1ccccc1C2 (stereo not shown) [I.d.23, 2-[cyano-(2,6-difluoro-4-pyridyl)amino]-5-methyl-N-spiro[cyclobutane-2,2′-indane]-1-yl-thiazole-4-carboxamide]
≥ 80%: inhibition of growth at 20 ppm [1] | inhibition of growth at 20 ppm [2] | pest or weed control at 200 ppm [3] | pest or weed control at 200 ppm (Pyrenophora teres) | inhibition of growth at 20 ppm [4] | inhibition of growth at 20 ppm [5] | pest or weed control at 200 ppm [6]

Cc1sc(N(C#N)c2cc(F)nc(F)c2)nc1C(=O)NCC(C)(C)C [I.k.23, 2-[cyano-(2,6-difluoro-4-pyridyl)amino]-N-(2,2-dimethylpropyl)-5-methyl-thiazole-4-carboxamide]
≥ 80%: inhibition of growth at 20 ppm [1] | inhibition of growth at 20 ppm [2] | pest or weed control at 200 ppm [3] | pest or weed control at 200 ppm (Pyrenophora teres) | inhibition of growth at 20 ppm [4] | inhibition of growth at 20 ppm [5] | pest or weed control at 200 ppm [6]

Cc1sc(N(C#N)c2cc(F)nc(F)c2)nc1C(=O)NC(C)c1ccccc1 (stereo not shown) [I.j.23, 2-[cyano-(2,6-difluoro-4-pyridyl)amino]-5-methyl-N-(1-phenylethyl)thiazole-4-carboxamide]
≥ 80%: inhibition of growth at 20 ppm [1] | inhibition of growth at 20 ppm [2] | pest or weed control at 200 ppm [3] | inhibition of growth at 20 ppm [5] | pest or weed control at 200 ppm [6]

Cc1sc(N(C#N)c2cc(F)nc(F)c2)nc1C(=O)NC1CCC12CCCC2 (stereo not shown) [I.c.23, 2-[cyano-(2,6-difluoro-4-pyridyl)amino]-5-methyl-N-spiro[3.4]octan-3-yl-thiazole-4-carboxamide]
≥ 80%: inhibition of growth at 20 ppm [1] | inhibition of growth at 20 ppm [2] | pest or weed control at 200 ppm [3] | pest or weed control at 200 ppm (Pyrenophora teres) | inhibition of growth at 20 ppm [4] | inhibition of growth at 20 ppm [5] | pest or weed control at 200 ppm [6]

Cc1sc(N(C#N)c2cc(F)nc(F)c2)nc1C(=O)NC1(C)CCCC1 [I.g.23, 2-[cyano-(2,6-difluoro-4-pyridyl)amino]-5-methyl-N-(1-methylcyclopentyl)thiazole-4-carboxamide]
≥ 80%: inhibition of growth at 20 ppm [1] | inhibition of growth at 20 ppm [2] | pest or weed control at 200 ppm [3] | pest or weed control at 200 ppm (Pyrenophora teres) | inhibition of growth at 20 ppm [4] | inhibition of growth at 20 ppm [5] | pest or weed control at 200 ppm [6]

Cc1sc(N(C#N)c2cc(F)nc(F)c2)nc1C(=O)NCc1ccccc1 [I.o.23, N-benzyl-2-[cyano-(2,6-difluoro-4-pyridyl)amino]-5-methyl-thiazole-4-carboxamide]
≥ 80%: inhibition of growth at 20 ppm [1] | inhibition of growth at 20 ppm [2] | pest or weed control at 200 ppm [3] | inhibition of growth at 20 ppm [4] | inhibition of growth at 20 ppm [5] | pest or weed control at 200 ppm [6]

Cc1sc(N(C#N)c2cc(F)nc(F)c2)nc1C(=O)NC1CCC12CCC2 (stereo not shown) [I.e.23, 2-[cyano-(2,6-difluoro-4-pyridyl)amino]-5-methyl-N-spiro[3.3]heptan-3-yl-thiazole-4-carboxamide]
≥ 80%: inhibition of growth at 20 ppm [1] | inhibition of growth at 20 ppm [2] | pest or weed control at 200 ppm [3] | inhibition of growth at 20 ppm [4] | inhibition of growth at 20 ppm [5] | pest or weed control at 200 ppm [6]

CCCCCCNC(=O)c1nc(N(C#N)c2cc(F)nc(F)c2)sc1C [I.h.23, 2-[cyano-(2,6-difluoro-4-pyridyl)amino]-N-hexyl-5-methyl-thiazole-4-carboxamide]
≥ 80%: inhibition of growth at 20 ppm [1] | inhibition of growth at 20 ppm [2] | pest or weed control at 200 ppm [3] | inhibition of growth at 20 ppm [4] | inhibition of growth at 20 ppm [5] | pest or weed control at 200 ppm [6]

Cc1sc(N(C#N)c2cc(F)nc(F)c2)nc1C(=O)NC1CCC1 [I.a.23, 2-[cyano-(2,6-difluoro-4-pyridyl)amino]-N-cyclobutyl-5-methyl-thiazole-4-carboxamide]
≥ 80%: inhibition of growth at 20 ppm [2] | pest or weed control at 200 ppm [3] | pest or weed control at 200 ppm (Pyrenophora teres) | inhibition of growth at 20 ppm [5] | pest or weed control at 200 ppm [6]

Cc1sc(N(C#N)c2cc(F)nc(F)c2)nc1C(=O)NCC(C)C [I.i.23, 2-[cyano-(2,6-difluoro-4-pyridyl)amino]-N-isobutyl-5-methyl-thiazole-4-carboxamide]
≥ 80%: inhibition of growth at 20 ppm [1] | inhibition of growth at 20 ppm [2] | pest or weed control at 200 ppm [3] | pest or weed control at 200 ppm (Pyrenophora teres) | inhibition of growth at 20 ppm [5] | pest or weed control at 200 ppm [6]

Cc1sc(N(C#N)c2cc(F)nc(F)c2)nc1C(=O)NCC1(CC2CC2)CC1 [I.f.23, 2-[cyano-(2,6-difluoro-4-pyridyl)amino]-N-[[1-(cyclopropylmethyl)cyclopropyl]methyl]-5-methyl-thiazole-4-carboxamide]
≥ 80%: inhibition of growth at 20 ppm [1] | inhibition of growth at 20 ppm [2] | pest or weed control at 200 ppm [3] | inhibition of growth at 20 ppm [4] | inhibition of growth at 20 ppm [5] | pest or weed control at 200 ppm [6]

Cc1sc(N(C#N)c2cc(F)cc(F)c2)nc1C(=O)NC1CCC1(C)C (stereo not shown) [I.b.08, 2-(N-cyano-3,5-difluoro-anilino)-N-(2,2-dimethylcyclobutyl)-5-methyl-thiazole-4-carboxamide]
≥ 80%: inhibition of growth at 20 ppm [1] | inhibition of growth at 20 ppm [2] | pest or weed control at 200 ppm [3] | inhibition of growth at 20 ppm [4] | inhibition of growth at 20 ppm [5] | pest or weed control at 200 ppm [6]
